ChEMBL document CHEMBL4270577, “Synthesis, anticancer activity and molecular modeling studies of 1,2,4-triazole derivatives as EGFR inhibitors” (Eur J Med Chem, 2018)

What was measured:
PC-3 = experiment: Growth inhibition of human PC3 cells at 10 uM incubated for 48 hrs by sulforhodamine B assay relative to control; type: functional; details: PC-3, 48 h, read-out: GI
NCI-H23 = experiment: Growth inhibition of human NCI-H23 cells at 10 uM incubated for 48 hrs by sulforhodamine B assay relative to control; type: functional; details: NCI-H23, 48 h, read-out: GI
A498 = experiment: Growth inhibition of human A498 cells at 10 uM incubated for 48 hrs by sulforhodamine B assay relative to control; type: functional; details: A498, 48 h, read-out: GI
SNB-75 = experiment: Growth inhibition of human SNB75 cells at 10 uM incubated for 48 hrs by sulforhodamine B assay relative to control; type: functional; details: SNB-75, 48 h, read-out: GI
LOX IMVI = experiment: Growth inhibition of human LOXIMVI cells at 10 uM incubated for 48 hrs by sulforhodamine B assay relative to control; type: functional; details: read-out: GI
SR = experiment: Growth inhibition of human SR cells at 10 uM incubated for 48 hrs by sulforhodamine B assay relative to control; type: functional; details: read-out: GI
NCI-H522 = experiment: Growth inhibition of human NCI-H522 cells at 10 uM incubated for 48 hrs by sulforhodamine B assay relative to control; type: functional; details: NCI-H522, 48 h, read-out: GI
HT-29 = experiment: Antiproliferative activity against human HT-29 cells after 48 hrs by propidium iodide staining-based fluorometric analysis; type: functional, cell-based; details: HT-29, 48 h
SK-MEL-2 = experiment: Growth inhibition of human SK-MEL-2 cells at 10 uM incubated for 48 hrs by sulforhodamine B assay relative to control; type: functional; details: SK-MEL-2, 48 h, read-out: GI
CCRF-CEM = experiment: Growth inhibition of human CCRF-CEM cells at 10 uM incubated for 48 hrs by sulforhodamine B assay relative to control; type: functional; details: read-out: GI
SF-539 = experiment: Growth inhibition of human SF539 cells at 10 uM incubated for 48 hrs by sulforhodamine B assay relative to control; type: functional; details: SF-539, 48 h, read-out: GI
RXF 393 = experiment: Growth inhibition of human RXF393 cells at 10 uM incubated for 48 hrs by sulforhodamine B assay relative to control; type: functional; details: RXF 393, 48 h, read-out: GI
BT-549 = experiment: Growth inhibition of human BT549 cells at 10 uM incubated for 48 hrs by sulforhodamine B assay relative to control; type: functional; details: BT-549, 48 h, read-out: GI
T47D = experiment: Growth inhibition of human T47D cells at 10 uM incubated for 48 hrs by sulforhodamine B assay relative to control; type: functional; details: read-out: GI
SK-MEL-28 = experiment: Growth inhibition of human SK-MEL-28 cells at 10 uM incubated for 48 hrs by sulforhodamine B assay relative to control; type: functional; details: SK-MEL-28, 48 h, read-out: GI
[1] = target: Epidermal growth factor receptor (Homo sapiens, UniProt P00533); experiment: Inhibition of His6-tagged recombinant EGFR cytoplasmic domain (645 to 1186 residues) (unknown origin) expressed in baculovirus infected Sf9 insect cells preincubated for 10 mins followed by ATP-MgCl2 addition and measured after 1 hr by DELFIA/time-resolved fluorometric analysis
KM12 = experiment: Growth inhibition of human KM12 cells at 10 uM incubated for 48 hrs by sulforhodamine B assay relative to control; type: functional; details: KM12, 48 h, read-out: GI
MOLT-4 = experiment: Growth inhibition of human MOLT4 cells at 10 uM incubated for 48 hrs by sulforhodamine B assay relative to control; type: functional; details: MOLT-4, 48 h, read-out: GI
ACHN = experiment: Growth inhibition of human ACHN cells at 10 uM incubated for 48 hrs by sulforhodamine B assay relative to control; type: functional; details: read-out: GI
K562 = experiment: Growth inhibition of human K562 cells at 10 uM incubated for 48 hrs by sulforhodamine B assay relative to control; type: functional; details: K562, 48 h, read-out: GI
HCT-15 = experiment: Growth inhibition of human HCT15 cells at 10 uM incubated for 48 hrs by sulforhodamine B assay relative to control; type: functional; details: HCT-15, 48 h, read-out: GI
SF-295 = experiment: Growth inhibition of human SF295 cells at 10 uM incubated for 48 hrs by sulforhodamine B assay relative to control; type: functional; details: SF-295, 48 h, read-out: GI
HCT-116 = experiment: Growth inhibition of human HCT116 cells at 10 uM incubated for 48 hrs by sulforhodamine B assay relative to control; type: functional; details: HCT-116, 48 h, read-out: GI
MDA-MB-231 = experiment: Growth inhibition of human MDA-MB-231/ATCC cells at 10 uM incubated for 48 hrs by sulforhodamine B assay relative to control; type: functional; details: MDA-MB-231, 48 h, read-out: GI
NCI/ADR-RES = experiment: Growth inhibition of human NCI/ADR-RES cells at 10 uM incubated for 48 hrs by sulforhodamine B assay relative to control; type: functional; details: read-out: GI
RPMI-8226 = experiment: Growth inhibition of human RPMI8226 cells at 10 uM incubated for 48 hrs by sulforhodamine B assay relative to control; type: functional; details: RPMI-8226, 48 h, read-out: GI

Sequence of Epidermal growth factor receptor (P00533 whole entry, the tested form may be a part): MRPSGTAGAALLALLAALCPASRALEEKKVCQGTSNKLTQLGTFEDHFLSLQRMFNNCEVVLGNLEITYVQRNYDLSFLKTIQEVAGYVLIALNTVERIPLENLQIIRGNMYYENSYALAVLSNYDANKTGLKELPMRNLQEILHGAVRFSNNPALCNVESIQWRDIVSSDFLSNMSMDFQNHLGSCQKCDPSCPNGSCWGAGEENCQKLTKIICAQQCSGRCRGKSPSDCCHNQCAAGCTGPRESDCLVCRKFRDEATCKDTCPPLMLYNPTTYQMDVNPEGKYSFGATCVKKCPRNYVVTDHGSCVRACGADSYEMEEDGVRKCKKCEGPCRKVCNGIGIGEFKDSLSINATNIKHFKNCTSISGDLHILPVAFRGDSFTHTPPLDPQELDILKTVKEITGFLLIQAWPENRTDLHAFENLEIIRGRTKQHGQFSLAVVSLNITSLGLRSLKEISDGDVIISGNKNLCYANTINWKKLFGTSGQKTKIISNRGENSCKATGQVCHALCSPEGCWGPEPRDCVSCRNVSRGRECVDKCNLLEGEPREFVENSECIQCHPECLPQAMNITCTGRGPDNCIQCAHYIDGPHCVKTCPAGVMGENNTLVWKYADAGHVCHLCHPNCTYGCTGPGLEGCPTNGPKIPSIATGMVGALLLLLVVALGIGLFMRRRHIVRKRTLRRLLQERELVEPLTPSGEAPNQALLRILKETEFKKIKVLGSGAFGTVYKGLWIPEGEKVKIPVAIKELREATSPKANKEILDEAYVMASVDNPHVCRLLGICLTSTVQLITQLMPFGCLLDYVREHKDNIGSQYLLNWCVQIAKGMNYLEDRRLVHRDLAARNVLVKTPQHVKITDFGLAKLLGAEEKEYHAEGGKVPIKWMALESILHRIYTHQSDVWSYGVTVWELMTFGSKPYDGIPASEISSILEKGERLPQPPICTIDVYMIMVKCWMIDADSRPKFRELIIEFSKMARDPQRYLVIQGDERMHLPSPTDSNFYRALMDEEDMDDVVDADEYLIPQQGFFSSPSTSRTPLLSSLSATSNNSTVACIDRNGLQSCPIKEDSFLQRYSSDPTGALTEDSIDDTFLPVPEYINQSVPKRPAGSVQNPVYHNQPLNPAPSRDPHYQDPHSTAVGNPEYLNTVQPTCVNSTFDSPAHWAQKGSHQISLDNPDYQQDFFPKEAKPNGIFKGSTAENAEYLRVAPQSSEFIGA

COc1ccc(-c2nc3sc(-c4ccccc4)cn3n2)cc1
inhibition of growth at 10 µM (PC-3): 33% | inhibition of growth at 10 µM (NCI-H23): 28% | inhibition of growth at 10 µM (A498): 56% | inhibition of growth at 10 µM (SNB-75): 34% | inhibition of growth at 10 µM (LOX IMVI): 45% | inhibition of growth at 10 µM (SR): 58% | inhibition of growth at 10 µM (NCI-H522): 70% | IC50 (HT-29): 6.6 µM | inhibition of growth at 10 µM (SK-MEL-2): 40% | inhibition of growth at 10 µM (CCRF-CEM): 35% | inhibition of growth at 10 µM (SF-539): 24% | inhibition of growth at 10 µM (RXF 393): 24% | inhibition of growth at 10 µM (BT-549): 26% | inhibition of growth at 10 µM (T47D): 65% | inhibition of growth at 10 µM (SK-MEL-28): 32% | IC50 [1]: 5.6 µM | inhibition of growth at 10 µM (KM12): 70% | inhibition of growth at 10 µM (MOLT-4): 49% | inhibition of growth at 10 µM (ACHN): 32% | inhibition of growth at 10 µM (K562): 76% | inhibition of growth at 10 µM (HCT-15): 69% | inhibition of growth at 10 µM (SF-295): 38% | inhibition of growth at 10 µM (HCT-116): 60% | inhibition of growth at 10 µM (MDA-MB-231): 53% | inhibition of growth at 10 µM (NCI/ADR-RES): 66% | inhibition of growth at 10 µM (RPMI-8226): 21%

c1ccc(-c2nc3sc(-c4ccccc4)cn3n2)cc1
inhibition of growth at 10 µM (PC-3): 37% | inhibition of growth at 10 µM (NCI-H23): 16% | inhibition of growth at 10 µM (A498): 13% | inhibition of growth at 10 µM (SNB-75): 15% | inhibition of growth at 10 µM (LOX IMVI): 16% | inhibition of growth at 10 µM (SR): 9% | inhibition of growth at 10 µM (NCI-H522): 19% | IC50 (HT-29): 8.4 µM | inhibition of growth at 10 µM (SK-MEL-2): 5% | inhibition of growth at 10 µM (CCRF-CEM): 13% | inhibition of growth at 10 µM (RXF 393): 9% | inhibition of growth at 10 µM (T47D): 63% | IC50 [1]: 9.8 µM | inhibition of growth at 10 µM (KM12): 18% | inhibition of growth at 10 µM (MOLT-4): 11% | inhibition of growth at 10 µM (ACHN): 14% | inhibition of growth at 10 µM (K562): 11% | inhibition of growth at 10 µM (HCT-15): 8% | inhibition of growth at 10 µM (HCT-116): 11% | inhibition of growth at 10 µM (MDA-MB-231): 35% | inhibition of growth at 10 µM (NCI/ADR-RES): 14% | inhibition of growth at 10 µM (RPMI-8226): 14%
